Experimental data reported in patent US12077503B2, “Substituted cyclic amides and their use as herbicides” (FMC CORPORATION, priority 2015, dated 2024).

Legend:
Format in all cases: in vivo
[1] = tested on: sedge, umbrella (small-flower umbrella sedge, Cyperus difformis); experiment: Test B flooded paddy test; conditions: Flood, 250 g ai/ha; 0 to 100 scale where 0 is no effect and 100 is complete control; 13 to 15 d
Summary of the method: (§1)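 Evaluation by eye, against controls, occurred 13–15 d post-treatment in a greenhouse, using a 0 (no effect) to 100 (complete control) scale. Application was into the paddy water, 3 cm deep over the soil, on 2-leaf plants.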

rice (Oryra sativa) = experiment: Test B flooded paddy test; conditions: Flood, 250 g ai/ha; 0 to 100 scale where 0 is no effect and 100 is complete control; 13 to 15 d
Summary of the method: as §1

[2] = tested on: ducksalad (Heteranthera limosa); experiment: Test B flooded paddy test; conditions: Flood, 250 g ai/ha; 0 to 100 scale where 0 is no effect and 100 is complete control; 13 to 15 d
Summary of the method: as §1

[3] = tested on: barnyardgrass (Echinochloa crus-galli); experiment: Test B flooded paddy test; conditions: Flood, 250 g ai/ha; 0 to 100 scale where 0 is no effect and 100 is complete control; 13 to 15 d
Summary of the method: as §1

Kochia (Kochia scoparia) [4] = experiment: Test A preemergence
Summary of the method: (§2)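 Seeds sprayed preemergence with a directed soil spray, or plants at 2 to 10 cm height and one- to two-leaf stage sprayed postemergence, with test chemicals in a non-phytotoxic solvent mixture containing surfactant, in loam soil–sand blend. Injury rated visually against untreated controls after about 10 d in greenhouse, 0 (no effect) to 100 (complete control).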

[5] = tested on: giant foxtail (Setaria faberii); experiment: Test A preemergence
Summary of the method: as §2

[6] = tested on: ragweed (common ragweed, Ambrosia elatior); experiment: Test A preemergence
Summary of the method: as §2

[7] = tested on: ryegrass, Italian (Italian ryegrass, Lolium multiflorum); experiment: Test A preemergence
Summary of the method: as §2

[8] = tested on: pigweed (Amaranthus retroflexus); experiment: Test A preemergence
[9] = tested on: barnyardgrass (Echinochloa crus-galli); experiment: Test A preemergence
Summary of the method: as §2

[10] = tested on: sedge, umbrella (small-flower umbrella sedge, Cyperus difformis); experiment: Test C flooded paddy test; conditions: Flood; for Plant response rating (scale of 0 to 100), Sedge, Umbrella: 0 is no effect, 100 is complete control
Summary of the method: (§3)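 Rice, small-flower umbrella sedge, ducksalad and barnyardgrass at the 2-leaf stage were flooded to 3 cm, and compound was applied into the paddy water. After 13 to 15 d in a greenhouse, plants were rated visually against controls on a 0 (no effect) to 100 (complete control) scale.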

[11] = tested on: ducksalad (Heteranthera limosa); experiment: Test C flooded paddy test; conditions: Flood; for Plant response rating (scale of 0 to 100), Ducksalad: 0 is no effect, 100 is complete control
Summary of the method: as §3

rice (Oryza sativa) = experiment: Test C flooded paddy test; conditions: Flood; for Plant response rating (scale of 0 to 100), Rice: 0 is no effect, 100 is complete control
Summary of the method: as §3

[12] = tested on: barnyardgrass (Echinochloa crus-galli); experiment: Test C flooded paddy test; conditions: Flood; for Plant response rating (scale of 0 to 100), Barnyardgrass: 0 is no effect, 100 is complete control
Summary of the method: as §3

[13] = tested on: wheat (Triticum aestivum); experiment: Test A postemergence; conditions: postemergence, 0 to 100 scale (0 no effect, 100 complete control)
Summary of the method: as §2

Kochia (Kochia scoparia) [14] = experiment: Test A postemergence; conditions: postemergence, 0 to 100 scale (0 no effect, 100 complete control)
Summary of the method: as §2

[15] = tested on: giant foxtail (Setaria faberii); experiment: Test A postemergence; conditions: postemergence, 0 to 100 scale (0 no effect, 100 complete control)
Summary of the method: as §2

[16] = tested on: ragweed (common ragweed, Ambrosia elatior); experiment: Test A postemergence; conditions: postemergence, 0 to 100 scale (0 no effect, 100 complete control)
Summary of the method: as §2

[17] = tested on: blackgrass (Alopecurus myosuroides); experiment: Test A postemergence; conditions: postemergence, 0 to 100 scale (0 no effect, 100 complete control)
Summary of the method: as §2

corn (Zea mays) = experiment: Test A postemergence; conditions: postemergence, 0 to 100 scale (0 no effect, 100 complete control)
Summary of the method: as §2

[18] = tested on: ryegrass, Italian (Italian ryegrass, Lolium multiflorum); experiment: Test A postemergence; conditions: postemergence, 0 to 100 scale (0 no effect, 100 complete control)
Summary of the method: as §2

[19] = tested on: Galium (catchweed bedstraw, Galium aparine); experiment: Test A postemergence; conditions: postemergence, 0 to 100 scale (0 no effect, 100 complete control)
Summary of the method: as §2

[20] = tested on: pigweed (Amaranthus retroflexus); experiment: Test A postemergence; conditions: postemergence, 0 to 100 scale (0 no effect, 100 complete control)
Summary of the method: as §2

[21] = tested on: barnyardgrass (Echinochloa crus-galli); experiment: Test A postemergence; conditions: postemergence, 0 to 100 scale (0 no effect, 100 complete control)
Summary of the method: as §2

[22] = 125 g ai/ha, Preemergence, visual injury after approximately 10 d, 0 to 100 scale where 0 is no effect and 100 is complete control
[23] = 500 g ai/ha, preemergence, 0 to 100 scale, 0 = no effect, 100 = complete control
[24] = 31 g ai/ha, scale 0 to 100 (0 no effect, 100 complete control), 13 to 15 d
[25] = 125 g ai/ha, visual rating after approx. 10 d
[26] = 500 g ai/ha, visual injury, approx. 10 d

Cc1ccc(C2CN(C)C(=O)C2C(=O)Nc2ccccc2F)cc1 (stereo not shown) [Compound 661]
Plant response rating, Sedge, Umbrella [1]: 0
Plant response rating, Rice (rice (Oryra sativa)): 10
Plant response rating, Ducksalad [2]: 100
Plant response rating, Barnyardgrass [3]: 80
Plant response rating, Kochia (Kochia (Kochia scoparia) [4]; [22]): 50
Plant response rating, Kochia (Kochia (Kochia scoparia) [4]; [23]): 70
Plant response rating, Foxtail, Giant [5, 22]: 90
Plant response rating, Foxtail, Giant [5, 23]: 100
Plant response rating, Ragweed [6, 22]: 70
Plant response rating, Ragweed [6, 23]: 80
Plant response rating, Ryegrass, Italian [7, 22]: 30
Plant response rating, Ryegrass, Italian [7, 23]: 50
Plant response rating, Pigweed [8, 22]: 0
Plant response rating, Pigweed [8, 23]: 40
Plant response rating, Barnyardgrass [9, 22]: 90
Plant response rating, Barnyardgrass [9, 23]: 90
Plant response rating, Sedge, Umbrella [10, 24]: 0
Plant response rating (scale of 0 to 100), Sedge, Umbrella ([10]; 62 g ai/ha): 0
Plant response rating (scale of 0 to 100), Sedge, Umbrella ([10]; 125 g ai/ha): 0
Plant response rating (scale of 0 to 100), Sedge, Umbrella ([10]; 250 g ai/ha): 0
Plant response rating, Ducksalad [11, 24]: 65
Plant response rating (scale of 0 to 100), Ducksalad ([11]; 62 g ai/ha): 75
Plant response rating (scale of 0 to 100), Ducksalad ([11]; 125 g ai/ha): 95
Plant response rating (scale of 0 to 100), Ducksalad ([11]; 250 g ai/ha): 100
Plant response rating, Rice (rice (Oryza sativa); [24]): 0
Plant response rating (scale of 0 to 100), Rice (rice (Oryza sativa); 62 g ai/ha): 0
Plant response rating (scale of 0 to 100), Rice (rice (Oryza sativa); 125 g ai/ha): 0
Plant response rating (scale of 0 to 100), Rice (rice (Oryza sativa); 250 g ai/ha): 10
Plant response rating, Barnyardgrass [12, 24]: 25
Plant response rating (scale of 0 to 100), Barnyardgrass ([12]; 62 g ai/ha): 70
Plant response rating (scale of 0 to 100), Barnyardgrass ([12]; 125 g ai/ha): 80
Plant response rating (scale of 0 to 100), Barnyardgrass ([12]; 250 g ai/ha): 85
Plant response rating, Wheat [13, 25]: 30
Plant response rating, Wheat [13, 26]: 80
Plant response rating, Kochia (Kochia (Kochia scoparia) [14]; [25]): 60
Plant response rating, Kochia (Kochia (Kochia scoparia) [14]; [26]): 70
Plant response rating, Foxtail, Giant [15, 25]: 90
Plant response rating, Foxtail, Giant [15, 26]: 90
Plant response rating, Ragweed [16, 25]: 10
Plant response rating, Ragweed [16, 26]: 50
Plant response rating, Blackgrass [17, 25]: 50
Plant response rating, Blackgrass [17, 26]: 70
Plant response rating, Corn (corn (Zea mays); [25]): 50
Plant response rating, Corn (corn (Zea mays); [26]): 90
Plant response rating, Ryegrass, Italian [18, 25]: 30
Plant response rating, Ryegrass, Italian [18, 26]: 80
Plant response rating, Galium [19, 25]: 50
Plant response rating, Galium [19, 26]: 60
Plant response rating, Pigweed [20, 25]: 0
Plant response rating, Pigweed [20, 26]: 0
Plant response rating, Barnyardgrass [21, 25]: 90
Plant response rating, Barnyardgrass [21, 26]: 90
